Columns and labels:
healthy eyes = tested on: healthy eyes; parameters: species or system Lewis rats; conditions: rat, in vivo
Description: For immunohistochemistry, eyeballs were collected and fixed for 1h at room temperature in phosphate buffered saline (PBS) containing 4% paraformaldehyde before being rinsed overnight in PBS. The next day, samples were embedded and frozen in optimal cutting-temperature (OCT) compound (Tissue-Tek®, Sakura Finetek, Zoeterwoude, Netherland) and stored at -80°C. Frozen antero-posterior sections of eyes (10 µm thick) were performed at the optic nerve level using a cryostat (Leica CM 3050S, Rueil-Malmaison, France) and mounted on super-frost slides for immunohistochemical analysis.
A second set of experiment was designed to evaluate the anti-inflammatory effect of the JNK-inhibitor (poly-)peptide of SEQ ID NO: 11 at the cellular and tissue level as well as the biodistribution of this molecule 24 hours after administration. Rats were randomized into 11 experimental groups. 6 groups of rats with uveitis: untreated uveitic rats, rats injected intravenously with NaCl or the JNK-inhibitor (poly-)peptide of SEQ ID NO: 11 and rats injected intravitreously with the vehicle, the JNK-inhibitor (poly-)peptide of SEQ ID NO: 11 or dexamethasone. The 5 additional groups without uveitis were: untreated healthy rats, rats treated by NaCl IV or the JNK-inhibitor (poly-)peptide of SEQ ID NO: 11 IV and rats injected IVT with NaCl or the JNK-inhibitor (poly-)peptide of SEQ ID NO: 11. […]

[1] = tested on: chemokines/ cytokines in the serum; assay: Chemokine/Cytokine Multiplex Assay on serum in EIU; format: in vivo, Lewis rats; conditions: tendency, not statistically significant
Description: Aqueous humor and vitreous were collected and pooled from each enucleated eye. Ocular fluids were immediately centrifuged and the cell-free fractions were collected and frozen at -20°C before analysis by Multiplex assay. Blood samples were first clotted at room temperature for 2 hours and then at 4°C overnight. Serum was collected, centrifuged and the clear supernatant was collected and frozen at -20°C before Multiplex analysis.
In a first set of experiment, 70 rats were randomized into 14 experimental groups with 5 rats per group. Uveitis was induced in each group and rats were killed 6 hours (4 groups), 24 hours (6 groups) and 48 hours (4 groups) after LPS challenge. For each time point tested (i.e. 6h, 24h and 48h), rats treated by intravenous or intravitreous injections of vehicle (NaCl 0.9%) or the JNK-inhibitor (poly-)peptide of SEQ ID NO: 11 were compared to untreated control uveitic rats. Two additional groups, treated by intravenous injection of vehicle and intravitreal injection of dexamethasone were used at 24 hours. Clinical ocular inflammation was recorded only at 24 hours (see Scoring of Endotoxin-Induced Uveitis (EIU) section). At each time point, intraocular fluids from each eye (n=10 per group) and serum from each animal (n=5 per group) were used for Chemokine/Cytokine Multiplex Assay.
Intraocular fluids (diluted to obtain a final volume of 25 µL) and sera (25 µL of 1:5 dilution) were subjected to multiplex bead analysis. This method uses microspheres as the solid support for immunoassays 12 and allows the titration of a greater number of cytokines with increased sensitivity than occurs with ELISA.13 For each sample, seventeen analytes were quantified simultaneously using the rat Cytokine/Chemokine-17plex kit (Milliplex Map Kit, Millipore, Saint-Quentin-en-Yvelines, France) according to the manufacturer's instructions: Chemokines MCP-1/CCL2, MIP-1α/CCL3, RANTES/CCL5, IP-10/CXCL10 (IFN-inducible protein-10) and GRO/KC; proinflammatory mediators IL-1, IL-18 and TNF-; Th1/Th2/Th17 cytokines IL-2 and IFN- / IL-4, IL-5, IL-6, IL-10 and IL-13 / IL-17. […]

iNOS mRNA = assay: iNOS expression in ocular tissues by semi-quantitative PCR in EIU; format: in vivo, Lewis rats; conditions: retinas
Description: Retinas and RPE/choroid/sclera complexes were also collected at 24 hours to analyze iNOS mRNA levels by RT-PCR and c-Jun phosphorylation state by Western-Blot. Tissues were collected only from eyes treated by IV (intravenous) injection of vehicle, IV injection of the JNK-inhibitor (poly-)peptide of SEQ ID NO: 11, IVT (intravitreal) injection of vehicle and IVT injection of the JNK-inhibitor (poly-)peptide of SEQ ID NO: 11 (n=2 eyes per condition collected from separate rats). Eyes were selected so that their EIU clinical score was representative of the mean of the experimental group they belong to, i.e 3 for eyes treated by IV and IVT injection of vehicle and 2 for eyes treated by IV or IVT injection of the JNK-inhibitor (poly-)peptide of SEQ ID NO: 11.
Two eyes per group were used for this analysis. Immediately after dissection, retinas extracted from each eye were separately snap frozen and stored at -80°C until use. Total RNA was extracted from tissues (RNeasy minikit, Qiagen, Courtaboeuf, France) according to the manufacturer's instructions. […] PCR fragments (162 bp for GAPDH and 657 bp for iNOS) were analyzed by 2.5% agarose gel electrophoresis and visualized by ethidium bromide staining under UV light. The relative band intensity for iNOS was calculated in comparison to that for GAPDH after densitometry analysis (ImageJ software).

CC(C)C[C@@H](NC(=O)[C@@H](Cc1ccccc1)NC(=O)[C@H]1CCCN1C(=O)[C@@H](CCC(N)=O)NC(=O)[C@H](NC(=O)[C@H]1CCCN1C(=O)[C@@H](CCCNC(=N)N)NC(=O)[C@@H](CO)NC(=O)[C@@H](CCC(N)=O)NC(=O)[C@H](N)CC(=O)O)C(C)C)C(=O)N[C@H](CC(N)=O)C(=O)N[C@H](CC(C)C)C(=O)N[C@@H](C(=O)N[C@@H](C(=O)N1CCC[C@@H]1C(=O)N[C@H](CCCNC(=N)N)C(=O)N[C@H](CCCCN)C(=O)N1CCC[C@@H]1C(=O)N[C@H](CCCNC(=N)N)C(=O)N1CCC[C@@H]1C(=O)N1CCC[C@@H]1C(=O)N[C@H](CCCNC(=N)N)C(=O)N[C@H](CCCNC(=N)N)C(=O)N[C@H](CCCNC(=N)N)C(=O)N[C@H](CCC(N)=O)C(=O)N[C@H](CCCNC(=N)N)C(=O)N[C@H](CCCNC(=N)N)C(=O)N[C@H](CCCCN)C(=O)N[C@H](CCCCN)C(=O)N[C@H](CCCNC(=N)N)C(=O)NCC(=O)O)[C@H](C)O)[C@H](C)O [SEQ ID NO: 11]
inflammatory cell infiltration in healthy eyes (healthy eyes): No inflammatory cell infiltration | IL-2 ([1]; after IV administration): reduction | MIP-1α ([1]; after IV administration): reduction | IL-2 ([1]; after IVT): reduction | Levels of iNOS mRNA (relative band intensity in comparison to GAPDH) (iNOS mRNA; 24 hours after IV): 0.40 ± 0.11 | Levels of iNOS mRNA (relative band intensity in comparison to GAPDH) (iNOS mRNA; 24 hours after IVT injection): 0.27 ± 0.09

Reference: patent publication EP2902035B1, “Cell-permeable peptide inhibitors of the JNK signal transduction pathway for use in the treatment of inflammatory eye diseases” (Xigen Inflammation Ltd., priority 2010, dated 2012)
